One block for each molecule: values may come before it. Calls of active or inactive are those of the source. No cut-off for these calls is given here.
Columns and labels:
HCT-116 [1] = experiment: Cytotoxicity against human HCT-116 cells assessed as cell viability upto 80 uM incubated for 24 hrs by CCK-8 assay; type: toxicity, cell-based; details: hct-116, 24 h
[2] = Drug localization in human HCT-116 cells Endoplasmic reticulum assessed as increase fluorescence at 30 uM incubated for 30 mins by ER-tracker red probe based inverted fluorescent microscopic analysis; type: ADME, subcellular; details: hct-116, 0.5 h
[3] = Drug localization in human HCT-116 cells Mitochondria assessed as increase fluorescence at 30 uM incubated for 30 mins by mito-tracker probe based inverted fluorescent microscopic analysis; type: ADME; details: hct-116, 0.5 h
[4] = Drug localization in human HCT-116 cells Lysosome assessed as increase fluorescence at 30 uM incubated for 30 mins by lyso-tracker probe based inverted fluorescent microscopic analysis; type: ADME, subcellular; details: hct-116, 0.5 h
[5] = Photophysical property of the compound assessed as maximum fluorescent emission peak at 0.03125 to 4 uM by fluorescence spectrophotometric analysis; type: physicochemical; details: dose 0.03125-4 µM
HCT-116 [6] = experiment: Cytotoxicity against human HCT-116 cells assessed as cell viability at 320 uM incubated for 24 hrs by CCK-8 assay; type: toxicity, cell-based; details: hct-116, 24 h
HepG2 [7] = experiment: Antiproliferative activity against human HepG2 cells assessed as inhibition of cell proliferation incubated for 24 hrs by CCK-8 assay; type: functional, cell-based; details: HepG2, 24 h
HCT-116 [8] = experiment: Antiproliferative activity against human HCT-116 cells assessed as inhibition of cell proliferation incubated for 24 hrs by CCK-8 assay; type: functional, cell-based; details: HCT-116, 24 h
HCT-116 [9] = experiment: Effect on TGR5 protein level in human HCT-116 cells by Western blot analysis; type: functional, cell-based
MDCK = experiment: Effect on TGR5 protein level in dog MDCK cells by Western blot analysis; type: functional, cell-based; details: Canis lupus familiaris
[10] = Antiproliferative activity against dog MDCK cells assessed as inhibition of cell proliferation incubated for 24 hrs by CCK-8 assay; type: toxicity, cell-based, Canis lupus familiaris
HepG2 [11] = experiment: Effect on TGR5 protein level in human HepG2 cells by Western blot analysis; type: functional, cell-based

SMILES: C=C(C(NCCNC(=O)C(C)c1ccc(CC(C)C)cc1)c1ccc(C(=O)OC)cc1)S(=O)(=O)c1cccc2c(N(C)C)cccc12 (configuration not stated)
- Activity (HCT-116 [1]): Toxic

- Drug uptake [2]: Active
- Drug uptake [3]: Not_active
- Drug uptake [4]: Not_active
- Activity [5]: Active
SMILES: C=C(C(NCCOC(=O)C(C)c1ccc(CC(C)C)cc1)c1ccc(C(=O)OC)cc1)S(=O)(=O)c1cccc2c(N(C)C)cccc12 (configuration not stated)
- Activity (HCT-116 [6]): Non-toxic

- IC50 (HepG2 [7]): 2.1 µM
- IC50 (HCT-116 [8]): 5.5 µM
SMILES: C=C(C(NCCNC(=O)CC[C@@H](C)[C@H]1CC[C@H]2[C@@H]3CC[C@@H]4C[C@H](O)CC[C@]4(C)[C@H]3CC[C@]12C)c1ccc(C(=O)OCCOCCOCCOC(=O)O[C@H]2c3cc4c(cc3[C@@H](c3cc(OC)c(OC)c(OC)c3)[C@H]3C(=O)OC[C@@H]32)OCO4)cc1)S(=O)(=O)c1cccc2c(N(C)C)cccc12 (some centres not stated)
- Activity (HCT-116 [9]): Active
- Activity (MDCK): Active
- IC50 at 24 h [10]: 14.6 µM
- Activity (HepG2 [11]): Active

— ChEMBL document CHEMBL6078654, “Modular Assembly of Heterotrifunctional Molecules Enabled by Iodosulfonylation of Allenes and Subsequent Amination” (J Med Chem, 2024)
